Measurements published in article PMC12406192, “Sustainable Joullié–Ugi and Continuous Flow Implementation Led to Novel Captopril-Inspired Broad-Spectrum Metallo-β-Lactamase Inhibitors” (Journal of Medicinal Chemistry, 2025).
“And” between values parts separate entries of the source, which are not always exact repeats. Equal entries are not always repeated. “Also recorded” adds a separate entry of the source. Marks after values point to notes of the source that are not given here.

Experiments:
[1] = tested on: K. pneumoniae T2301 (bla NDM‑1 +); assay: Imipenem MIC, broth microdilution, with fixed concentration of compound; type: cell-based; conditions: compound at 128 μg/mL; median of three experiments
Protocol: (§1) In vitro antimicrobial susceptibility testing was performed according to established standards. […]. The strains used in the study were described elsewhere.

[2] = tested on: E. coli SI-M001 (bla NDM‑1 +); assay: as above; type: cell-based; conditions: compound at 32 μg/mL; median of three experiments
Protocol: as §1

[3] = tested on: S. marcescens SI-1591 (bla VIM‑2 +); assay: microbe, parasite or virus in culture; type: cell-based; conditions: compound at 32 μg/mL; median of three experiments
Protocol: (§2) In vitro antimicrobial susceptibility testing was performed according to established standards. […] The strains used in the study were described elsewhere.

NDM-1 [4] = biological target: T1, NDM-1 (Klebsiella pneumoniae, UniProt C7C422); assay: Spectrophotometric direct competition assay, imipenem hydrolysis (reporter substrate); type: biochemical; conditions: for Ki: competitive model, imipenem reporter substrate, read-out: K i NDM-1; for inhibition at 50 µM: read-out: percentage of inhibition NDM-1
T1 construct: made in house; host or cells: E. coli
Protocol: (§3) IC50 values were determined in a kinetic fluorescence-based in vitro assay as described previously. All compounds were preincubated with the recombinant protein for 30 min before addition of the fluorogenic substrate fluorocillin. , The inhibitory activity was also determined (expressed as the percentage of inhibition in the presence of 50 μM compound) using a spectrophotometric assay in which the hydrolysis of imipenem (the reporter substrate) was monitored (see Section for details).
(§4) The inhibitory activity of the compounds was determined using enzyme assays with recombinant NDM-1, VIM-1, VIM-2, IMP-1, and IMP-7. These enzymes were produced in E. coli and purified as previously described. , The fluorogenic substrate fluorocillin was synthesized according to the procedure described by Rukavishnikov et al. The assays were performed in 96-well format using black polystyrene plates (Corning, Corning, NY) at room temperature, and the measurements were carried out on the Tecan spectrophotometer Infinite F200 PRO (Tecan, Männedorf, Switzerland). The protein stock solutions were diluted in assay buffer (HEPES 50 mM, pH 7.5 containing 0.01%Triton X-100, buffer HX) to reach final concentrations of VIM-1–4 nM, IMP-7–0.1 nM; NDM-1–3 nM. Subsequently, 89 μL of the protein solution was mixed with 1 μL of the inhibitor diluted in DMSO (final DMSO concentration 1% at final assay volume of 100 μL) and incubated for 30 min. […] Negative controls were measured in the absence of enzyme (89 μL of assay buffer), whereas the positive controls were measured in the presence of enzyme and in the absence of inhibitors (1 μL of DMSO). Each measurement was performed in triplicate in three independent experiments. IC50 values were calculated using data obtained from measurements with at least eight different inhibitor concentrations, applying a sigmoidal dose–response (variable slope with four parameters) equation using GraphPad Prism 5 (GraphPad Software, La Jolla, CA) software. […] All assays were performed in at least in triplicate.

VIM-2 [5] = biological target: T2, VIM-2 (Escherichia coli, UniProt Q5U7L7); assay: biochemical; conditions: for K, VIM-2 / k –2, VIM-2: from dependence of k inact on inhibitor concentration; for Kd: time-dependent inhibitors, measured at steady state, listed in Table 2 as Ki with footnote 'Measured as K d'
T2 construct: made in house; host or cells: E. coli

[6] = tested on: E. coli SI-G001 (bla NDM‑4 +); type: cell-based; conditions: compound at 32 μg/mL; median of three experiments
Protocol: as §2

[7] = tested on: E. coli SI–N003 (bla NDM‑7 +); type: cell-based; conditions: compound at 32 μg/mL; median of three experiments
Protocol: as §2

NDM-1 [8] = biological target: T1, NDM-1; assay: Kinetic fluorescence-based in vitro assay with fluorocillin substrate (IC50); type: biochemical; conditions: 30 min preincubation
Protocol: as §3, §4

IMP-7 = IMP-7 (Pseudomonas aeruginosa, UniProt Q93AU3); assay: as above; type: biochemical; conditions: 30 min preincubation
Protocol: as §3, §4

VIM-1 = biological target: T3, VIM-1 (Pseudomonas aeruginosa, UniProt A0A0F7KYQ8); assay: as above; type: biochemical
T3 construct: made in house; host or cells: E. coli
Protocol: as §3, §4

IMP-1 = biological target: T4, IMP-1 (Serratia marcescens, UniProt P52699); assay: biochemical; conditions: for inhibition at 50 µM: read-out: percentage of inhibition IMP-1
T4 construct: made in house; host or cells: E. coli
Protocol: as §3, §4

VIM-2 [9] = biological target: T2, VIM-2; assay: biochemical; conditions: read-out: percentage of inhibition VIM-2
Protocol: as §3, §4

[10] = biological target: T5, human angiotensin-converting enzyme 1 (ACE-1) (Homo sapiens, UniProt P12821); assay: ACE Activity Assay Kit, fluorogenic substrate; type: biochemical; conditions: for inhibition at 50 µM: 50 μM inhibitor
T5 construct: purchased Sigma-Aldrich CS0002
Protocol: To assess the selectivity of the compounds, their inhibitory activity on human angiotensin-converting enzyme 1 (ACE-1) was performed using the ACE Activity Assay Kit (Sigma-Aldrich cat. No. CS0002). […] Captopril (racemic mixture, D- and L-stereoisomers) was used as control in these experiments.

[11] = tested on: K. pneumoniae VA-416/02 (bla VIM‑4 +); assay: Imipenem MIC, broth microdilution, with fixed concentration of compound; type: cell-based; conditions: compound at 32 μg/mL; median of three experiments
Protocol: as §2

[12] = tested on: P. aeruginosa T2325 (bla IMP‑1 +); assay: as above; type: cell-based
Protocol: as §2

[13] = tested on: K. pneumoniae 7023 (bla VIM‑1 +); assay: as above; type: cell-based; conditions: for imipenem MIC, K. pneumoniae 7023 (bla VIM‑1 +): compound at 32 μg/mL, median of three experiments
Protocol: as §2

[14] = tested on: A. baumannii AC-54/97 (bla IMP‑2 +); assay: as above; type: cell-based; conditions: compound at 32 μg/mL; median of three experiments
Protocol: as §2

[15] = tested on: K. pneumoniae T2216 (bla VIM‑1 +); assay: as above; type: cell-based; conditions: compound at 128 μg/mL; median of three experiments
Protocol: as §2

[16] = tested on: IMP-1 expressing P. aeruginosa (T2325); assay: Growth inhibition assay (OD600 growth curves); type: cell-based
Protocol: (§5) 4 Growth inhibition assay. […] Purple = growth control; red = 6d; blue = imipenem; green = imipenem plus 6d.
(§6) A computerized incubator (Tecan Infinite M200 pro, Crailsheim, Germany) was used to obtain the growth curves over a time course. Optical density (OD600) was measured for evaluating bacterial (i.e., K. pneumoniae NDM-1, P. aeruginosa IMP-1, K. pneumoniae VIM-1) density in suspension. Prior to each experiment, bacteria were cultured to the exponential phase (OD600 = 0.6–0.8) in cation-adjusted Mueller Hinton broth (Becton Dickinson, Heidelberg, Germany). 5 μL of diluted bacterial suspension and 100 μL of cation-adjusted Mueller Hinton broth either with or without imipenem (Arcos Organics, Schwerte, Germany) and/or the MBL inhibitor 6d were added into wells of a 96-well plate to give a final bacterial inoculum of approximately 5 × 10^5 CFU/mL. The temperature was adjusted to 37 °C. A permanent shaking speed of 450 rpm was used and was only interrupted before OD600 measurement. The optical densities of samples were recorded online every 10 min for 24 h.

[17] = tested on: VIM-1 expressing K. pneumoniae (T2216); assay: Growth inhibition assay (OD600 growth curves); type: cell-based
Protocol: as §5, §6

[18] = tested on: NDM-1 expressing K. pneumoniae (T2301); assay: Growth inhibition assay (OD600 growth curves); type: cell-based
Protocol: as §5, §6

[19] = tested on: MBL-producing clinical isolates; assay: Synergistic activity with imipenem on the whole panel of clinical isolates; type: cell-based
Protocol: as §1

[20] = 6d at 128 μg/mL plus imipenem at 0.5 × MIC, 24 h

T1 sequence (C7C422 29-270 limits assumed): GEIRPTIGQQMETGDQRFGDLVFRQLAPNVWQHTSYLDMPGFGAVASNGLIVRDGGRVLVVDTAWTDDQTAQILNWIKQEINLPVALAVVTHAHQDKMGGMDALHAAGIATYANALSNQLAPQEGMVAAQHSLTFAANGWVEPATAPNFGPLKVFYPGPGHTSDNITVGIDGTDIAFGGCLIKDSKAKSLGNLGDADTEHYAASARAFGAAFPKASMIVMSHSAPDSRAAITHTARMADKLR
T4 sequence (P52699 19-246, looked up, species assumed): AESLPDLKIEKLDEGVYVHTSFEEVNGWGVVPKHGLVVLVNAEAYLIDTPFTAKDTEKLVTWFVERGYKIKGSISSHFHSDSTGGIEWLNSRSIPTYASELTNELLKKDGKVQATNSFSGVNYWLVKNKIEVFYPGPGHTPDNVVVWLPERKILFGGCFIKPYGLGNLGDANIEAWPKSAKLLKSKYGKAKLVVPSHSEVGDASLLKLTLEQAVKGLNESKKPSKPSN
T5 sequence (P12821 30-1306): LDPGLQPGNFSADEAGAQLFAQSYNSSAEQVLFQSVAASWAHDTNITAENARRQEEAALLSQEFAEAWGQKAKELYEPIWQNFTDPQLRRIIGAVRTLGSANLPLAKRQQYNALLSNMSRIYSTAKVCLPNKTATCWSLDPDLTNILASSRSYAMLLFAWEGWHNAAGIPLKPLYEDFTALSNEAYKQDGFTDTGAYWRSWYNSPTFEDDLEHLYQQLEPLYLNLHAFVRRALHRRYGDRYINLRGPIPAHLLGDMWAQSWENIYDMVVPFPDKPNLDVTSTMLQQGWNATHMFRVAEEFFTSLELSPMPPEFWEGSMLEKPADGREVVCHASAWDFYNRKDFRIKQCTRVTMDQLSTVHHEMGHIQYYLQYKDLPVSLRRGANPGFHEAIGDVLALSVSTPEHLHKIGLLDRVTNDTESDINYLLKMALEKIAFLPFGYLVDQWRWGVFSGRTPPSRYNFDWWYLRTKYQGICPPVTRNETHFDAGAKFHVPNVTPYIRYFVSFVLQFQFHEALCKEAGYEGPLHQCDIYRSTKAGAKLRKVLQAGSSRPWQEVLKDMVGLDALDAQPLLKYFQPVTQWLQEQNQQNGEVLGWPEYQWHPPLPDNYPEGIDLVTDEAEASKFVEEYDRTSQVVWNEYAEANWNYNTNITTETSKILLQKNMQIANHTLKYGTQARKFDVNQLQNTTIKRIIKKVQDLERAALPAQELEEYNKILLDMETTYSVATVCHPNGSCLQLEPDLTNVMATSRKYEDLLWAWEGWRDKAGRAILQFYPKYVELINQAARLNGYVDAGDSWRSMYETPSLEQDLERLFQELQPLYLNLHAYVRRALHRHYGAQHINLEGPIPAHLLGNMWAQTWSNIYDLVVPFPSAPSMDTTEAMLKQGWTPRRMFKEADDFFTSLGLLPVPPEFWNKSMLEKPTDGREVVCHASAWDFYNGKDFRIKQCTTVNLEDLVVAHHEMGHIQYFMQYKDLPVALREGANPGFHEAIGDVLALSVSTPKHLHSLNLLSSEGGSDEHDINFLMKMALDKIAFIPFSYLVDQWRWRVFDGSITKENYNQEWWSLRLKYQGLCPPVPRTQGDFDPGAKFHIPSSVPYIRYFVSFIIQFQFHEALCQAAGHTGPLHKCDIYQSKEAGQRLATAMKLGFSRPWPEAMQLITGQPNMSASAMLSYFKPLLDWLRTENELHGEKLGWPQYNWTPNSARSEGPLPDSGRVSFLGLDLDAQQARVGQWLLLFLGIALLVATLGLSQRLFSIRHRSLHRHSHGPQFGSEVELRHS
Chain of IMP-7 (Q93AU3 entry or part of it): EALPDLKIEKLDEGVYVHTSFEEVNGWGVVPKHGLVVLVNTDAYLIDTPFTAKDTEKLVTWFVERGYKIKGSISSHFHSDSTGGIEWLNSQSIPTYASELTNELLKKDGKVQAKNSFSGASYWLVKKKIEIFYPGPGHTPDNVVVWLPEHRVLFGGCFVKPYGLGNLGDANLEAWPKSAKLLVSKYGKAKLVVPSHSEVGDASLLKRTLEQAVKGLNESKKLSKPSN

Compound	imipenem MIC, E. coli SI-M001 (bla NDM‑1 +) [2]	imipenem MIC, S. marcescens SI-1591 (bla VIM‑2 +) [3]	Ki (NDM-1 [4])	inhibition at 50 µM (NDM-1 [4])	K, VIM-2 (VIM-2 [5])	k –2, VIM-2 (VIM-2 [5])	Kd (VIM-2 [5])	imipenem MIC, E. coli SI-G001 (bla NDM‑4 +) [6]	imipenem MIC, E. coli SI–N003 (bla NDM‑7 +) [7]	IC50 (NDM-1 [8])	inhibition at 50 µM (IMP-1)	inhibition at 50 µM (VIM-2 [9])	inhibition at 50 µM [10]	imipenem MIC, K. pneumoniae VA-416/02 (bla VIM‑4 +) [11]	imipenem MIC, K. pneumoniae 7023 (bla VIM‑1 +) [13]	imipenem MIC, A. baumannii AC-54/97 (bla IMP‑2 +) [14]	potentiation of imipenem (change of imipenem MIC) on the panel, in words [19]	also measured
CCC1(CC)c2ccccc2N(C(=O)[C@H](C)CS)[C@H]1C(N)=O [6d, (R)-3,3-Diethyl-1-((S)-3-mercapto-2-methylpropanoyl)indoline-2-carboxamide]	32 µg/mL	8 µg/mL	2.6 ± 0.1 µM	90%	>30 µM	5.0 × 10^–3 s^–1	0.08 ± 0.01 µM	32 µg/mL	64 µg/mL	3.5 µM	51%	98%	< 5%	64 µg/mL	16 µg/mL	128 µg/mL	–	imipenem MIC, K. pneumoniae T2301 (bla NDM‑1 +) [1]: 16 ^c μg/mL; IC50 (IMP-7): 3.3 µM; IC50 (VIM-1): 0.4 µM; inhibitory activity on ACE-1 (in words) ([10]; tested at 50 μM): negligible activity; also recorded: completely inactive; imipenem MIC, P. aeruginosa T2325 (bla IMP‑1 +) ([12]; compound at 128 μg/mL, median of three experiments): 16 ^c μg/mL; fold reduction of the imipenem MIC, IMP-1-producing P. aeruginosa isolate ([12]; in combination with imipenem): 8 fold and 4 fold; fold reduction of the imipenem MIC, VIM-1-producing K. pneumoniae isolate ([13]; in combination with imipenem): 8 fold and 4 fold; imipenem MIC, K. pneumoniae T2216 (bla VIM‑1 +) [15]: 2 ^c μg/mL; effect on the inhibitory potential of imipenem (growth curves) [16, 20]: further prolonged for several hours; intrinsic antibacterial activity (no activity up to) ([16]; inhibitor alone): > 128 µg/mL; effect on the inhibitory potential of imipenem (growth curves) [17, 20]: further prolonged for several hours; intrinsic antibacterial activity (no activity up to) ([17]; inhibitor alone): > 128 µg/mL; effect on the inhibitory potential of imipenem (growth curves) [18, 20]: further prolonged for several hours; intrinsic antibacterial activity (no activity up to) ([18]; inhibitor alone): > 128 µg/mL
C[C@H](CS)C(=O)N1c2ccccc2C2(CCCCC2)[C@H]1C(N)=O [6e, (S)-1′-((S)-3-Mercapto-2-methylpropanoyl)spiro[cyclohexane-1,3′-indoline]-2′-carboxamide]	32 µg/mL	16 µg/mL	2 ± 0.1 µM	86%	–	–	–	64 µg/mL	64 µg/mL	7.4 µM	68%	97%	< 5%	64 µg/mL	64 µg/mL	128 µg/mL	unable to reduce the imipenem MIC	Ki (VIM-2 [5]; competitive model, imipenem reporter substrate, read-out: K i VIM-2): 0.1 ± 0.01 µM; Ki (IMP-1; competitive model, imipenem reporter substrate, read-out: K i IMP-1): 3.8 ± 0.3 µM
C[C@H](CS)C(=O)N1c2ccccc2C2(CCCCC2)[C@@H]1C(N)=O [6f, (R)-1′-((S)-3-Mercapto-2-methylpropanoyl)spiro[cyclohexane-1,3′-indoline]-2′-carboxamide]	32 µg/mL	16 µg/mL	2.1 ± 0.2 µM	83%	>20 µM	2.6 × 10^–3 s^–1	0.16 ± 0.01 µM	64 µg/mL	64 µg/mL	4.8 µM	38%	92%	–	128 µg/mL	64 µg/mL	128 µg/mL	unable to reduce the imipenem MIC	–
